Experiments:
human GCase = human GCase (Homo sapiens, UniProt P04062); assay: Inhibitory activity against GCase (4-methylumbelliferyl β-glucoside substrate); assay type: biochemical; conditions: for IC50: 4-methylumbelliferyl β-glucoside at 3 mM, pH 5.2, 37° C., 30 min
[1] = shortly after the start of the treatment; cited from earlier work
[2] = test system: Fibroblasts established from Gaucher patients with N370S/N370S mutation; assay: Chaperone rescue of residual GCase activity in Gaucher fibroblasts; assay type: cell-based, human; conditions: N370S homozygous fibroblasts, cultured 4 days with compound, at optimal concentration

human GCase, sequence (P04062 40-536): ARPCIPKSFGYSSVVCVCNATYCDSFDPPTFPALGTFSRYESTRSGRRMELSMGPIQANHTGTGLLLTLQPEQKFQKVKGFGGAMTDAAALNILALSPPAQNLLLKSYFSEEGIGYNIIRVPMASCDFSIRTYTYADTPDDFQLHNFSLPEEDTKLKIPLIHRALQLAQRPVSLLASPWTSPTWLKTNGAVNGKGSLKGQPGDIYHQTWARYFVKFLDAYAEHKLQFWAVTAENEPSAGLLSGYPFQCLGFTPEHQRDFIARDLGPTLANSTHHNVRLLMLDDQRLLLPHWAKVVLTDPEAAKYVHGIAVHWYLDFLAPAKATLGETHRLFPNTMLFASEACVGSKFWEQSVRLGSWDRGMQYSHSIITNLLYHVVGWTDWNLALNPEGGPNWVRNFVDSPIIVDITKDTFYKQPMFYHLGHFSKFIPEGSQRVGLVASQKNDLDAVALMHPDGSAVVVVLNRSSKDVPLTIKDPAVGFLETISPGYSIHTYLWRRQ

Row | Compound | IC50 (human GCase) | other results
1 | CCCC[C@@H]1NC[C@@H](O)[C@H](O)[C@H]1CO [Compound 11, (3R, 4R, 5R, 6S)-5-(Hydroxymethyl)-6-n-butyl-3,4-dihydroxypiperidine] | 160 nM | effect of 6-C substitution on potency towards GCase (human GCase; compared with the parent hydroxypiperidine): did not affect the potency
2 | CCCCCC[C@@H]1NC[C@@H](O)[C@H](O)[C@H]1CO [Compound 12, (3R, 4R, 5R, 6S)-5-(Hydroxymethyl)-6-n-hexyl-3,4-dihydroxypiperidine] | 4.2 nM | increase in potency over IFG (human GCase; relative to IFG): approximately 13 fold
3 | CCCCCCC[C@@H]1NC[C@@H](O)[C@H](O)[C@H]1CO [Compound 13, (3R, 4R, 5R, 6S)-5-(Hydroxymethyl)-6-n-heptyl-3,4-dihydroxypiperidine] | 1.8 nM | –
4 | CCCCCCCC[C@@H]1NC[C@@H](O)[C@H](O)[C@H]1CO [Compound 14, (3R, 4R, 5R, 6S)-5-(Hydroxymethyl)-6-n-octyl-3,4-dihydroxypiperidine] | 0.8 nM | –
5 | CCCCN1CC(O)C(O)C(O)C1CO (stereo not shown) [N-butyl 1-deoxynojirimycin] | – | patients with diarrhea (most frequent adverse effect) [1]: 79%
6 | OC[C@H]1CNC[C@@H](O)[C@@H]1O [hydroxypiperidine, isofagomine] | – | increase of residual enzyme activity in patient cells [2]: approximately 2 fold
7 | N-butyl hydroxypiperidine [reference compound] | 44000 nM | –
8 | N-nonyl hydroxypiperidine [reference compound] | > 100000 nM | –

Reference: patent US7741340B2, “Hydroxy piperidine derivatives to treat gaucher disease” (Amicus Therapeutics, Inc., priority 2003, dated 2010)
